Measurements: PMC11249776, “Synthesis of Structural ADP-Ribose Analogues as Inhibitors for SARS-CoV-2 Macrodomain 1” (Organic Letters, 2024)

Molecular target: T1, SARS-CoV-2 NSP3 macrodomain (Severe acute respiratory syndrome coronavirus 2, UniProt P0DTD1)
T1 construct: SARS-CoV-2 NSP3 macrodomain
Assay: Mac1 HTRF assay (displacement of ADP-ribose conjugated biotin peptide)
Format: binding
Conditions: for Mac1 inhibition / affinity in words: qualitative statement

Compound | IC50 [µM] | Mac1 inhibition / affinity in words
COC1OC(COP(=O)(O)OP(=O)(O)OCC2OC(n3cnc4c(N)ncnc43)C(O)C2O)C(F)C1O (stereo not shown) [Compound 8] | > 200 | drastically diminished binding affinity
CON=C1C(COP(=O)(O)OP(=O)(O)OCC2OC(n3cnc4c(N)ncnc43)C(O)C2O)OC(OC)C1O (stereo not shown) [Compound 9] | > 200 | –
[N-]=[N+]=NC1OC(COP(=O)(O)OP(=O)(O)OCC2OC(n3cnc4c(N)ncnc43)C(O)C2O)C(O)C1OCc1ccccc1 (stereo not shown) [Compound 7] | 80 ± 1.7 | poor affinity
CO[C@H]1O[C@H](COP(=O)(O)OP(=O)(O)OC[C@H]2O[C@@](C#N)(c3ccc4c(N)ncnn34)[C@H](O)[C@@H]2O)[C@@H](O)[C@H]1O [Compound 10, α-O-methyl-NDPr] | 0.063 ± 0.005 | –
COC1OC(COP(=O)(O)OP(=O)(O)OCC2OC(n3cnc4c(N)ncnc43)C(O)C2O)C(O)C1OCc1ccccc1 (stereo not shown) [Compound 6] | > 200 | poor affinity
N#C[C@@]1(c2ccc3c(N)ncnn23)O[C@H](COP(=O)(O)OP(=O)(O)OC[C@H]2O[C@H](N=[N+]=[N-])[C@H](O)[C@@H]2O)[C@@H](O)[C@H]1O [Compound 11, α-N3-NDPr] | 0.03 ± 0.0015 | –
C#CC1OC(COP(=O)(O)OP(=O)(O)OCC2OC(n3cnc4c(N)ncnc43)C(O)C2O)C(O)C1O (stereo not shown) [Compound 5] | 2.4 ± 0.2 | –
